Measurements as given in ChEMBL document CHEMBL1144603, “Synthesis and biological evaluation of new taxoids derived from 2-deacetoxytaxinine J” (Bioorg Med Chem Lett, 2007).
Calls of active or inactive are those of the source. The rule behind the calls is not given here.

What was measured:
MCF7 [1] = test: MDR-reversal in paclitaxel-resistant […] cell growth assay as reduction of IC50 at 0.1uM; type: functional, cell-based, Homo sapiens
MCF7 [2] = test: MDR-reversal in paclitaxel-resistant […] cell growth assay as reduction of IC50 at 1uM; type: functional, cell-based, Homo sapiens
MCF7 [3] = test: MDR-reversal in paclitaxel-resistant […] cell growth assay; type: functional, cell-based; details: Homo sapiens

Compound | IC50 reduction (MCF7 [1]) [%] | percent reduction of paclitaxel IC50 (MCF7 [2]) [%] | Activity (MCF7 [3])
C=C1[C@@H](OC(=O)c2ccccc2)C[C@H](OC(C)=O)[C@]2(C)[C@@H]1C[C@@H]1C[C@H](OC(C)=O)C(C)=C(C1C)[C@@H](OC(C)=O)[C@@H]2OC(C)=O (single isomer, unassigned) | – | – | inactive
C=C1[C@@H](O[Si](CC)(CC)CC)C[C@H](OC(C)=O)[C@]2(C)[C@@H]1C[C@@H]1C[C@H](OC(C)=O)C(C)=C(C1C)[C@@H](OC(C)=O)[C@@H]2OC(C)=O (single isomer, unassigned) | – | 92 | –
CC(=O)O[C@H]1C[C@H](OC(=O)/C=C/c2ccccc2)[C@@]2(CO2)[C@H]2C[C@@H]3C[C@H](OC(C)=O)[C@]4(C)O[C@@]4([C@@H]3C)[C@@H](OC(C)=O)[C@H](OC(C)=O)[C@]12C | 2 | 70 | –
C=C1[C@@H](OC(=O)/C=C/c2ccccc2)C[C@H](OC(C)=O)[C@]2(C)[C@@H]1C[C@@H]1C[C@H](OC(=O)C(O)[C@@H](CC(C)C)NC(=O)OC(C)(C)C)C(C)=C([C@@H](OC(C)=O)[C@@H]2OC(C)=O)[C@@H]1C (some centres undefined) | – | – | inactive
C=C1[C@H]2C[C@@H]3C[C@H](OC(=O)[C@H](O)[C@H](CC(C)C)NC(=O)OC(C)(C)C)C(C)=C([C@@H](OC(C)=O)[C@H](OC(C)=O)[C@]2(C)[C@@H](OC(C)=O)C[C@@H]1O)[C@@H]3C | – | 93 | –
C=C1[C@@H](OC(=O)/C=C/c2ccccc2)C[C@H](OC(C)=O)[C@]2(C)[C@@H]1C[C@@H]1C[C@H](OC(=O)/C=C/c3ccccc3)C(C)=C([C@@H](OC(C)=O)[C@@H]2OC(C)=O)[C@@H]1C | – | – | inactive
C=C1[C@@H](OC(=O)[C@@H]2OC(c3ccc(OC)cc3OC)N(C(=O)OC(C)(C)C)[C@H]2CC(C)C)C[C@H](OC(C)=O)[C@]2(C)[C@@H]1C[C@@H]1C[C@H](OC(C)=O)C(C)=C([C@@H](OC(C)=O)[C@@H]2OC(C)=O)[C@@H]1C (some centres undefined) | – | – | inactive
C=C1[C@@H](OC(=O)/C=C/c2ccccc2)C[C@H](OC(C)=O)[C@]2(C)[C@@H]1C[C@@H]1C[C@H](OC(=O)[C@@H]3OC(c4ccc(OC)cc4OC)N(C(=O)OC(C)(C)C)[C@H]3CC(C)C)C(C)=C([C@@H](OC(C)=O)[C@@H]2OC(C)=O)[C@@H]1C (some centres undefined) | – | – | inactive

Continued, in another order:

IC50 reduction (MCF7 [1]) [%] | percent reduction of paclitaxel IC50 (MCF7 [2]) [%] | Compound | Activity (MCF7 [3])
22 | 92 | C=C1[C@@H](OC(=O)/C=C/c2ccccc2)C[C@H](OC(C)=O)[C@]2(C)[C@@H]1C[C@@H]1C[C@H](OC(C)=O)[C@]3(C)O[C@@]3([C@@H]1C)[C@@H](OC(C)=O)[C@@H]2OC(C)=O | –
35 | 92 | C=C1[C@H]2C[C@@H]3C[C@H](OC(=O)/C=C/c4ccccc4)C(C)=C([C@@H](OC(C)=O)[C@H](OC(C)=O)[C@]2(C)[C@@H](OC(C)=O)C[C@@H]1O)[C@@H]3C | –
67 | 95 | C=C1[C@H]2C[C@@H]3C[C@H](OC(=O)c4ccccc4)C(C)=C([C@@H](OC(C)=O)[C@H](OC(C)=O)[C@]2(C)[C@@H](OC(C)=O)C[C@@H]1O)[C@@H]3C | –
– | 85 | CC(=O)O[C@H]1C[C@H]2C[C@@H]3[C@]4(CO4)[C@@H](OC(=O)/C=C/c4ccccc4)C[C@H](OC(C)=O)[C@@]3(C)[C@@H](OC(C)=O)[C@H](OC(C)=O)C(=C1C)[C@@H]2C | –
24 | 89 | C=C1[C@H]2C[C@@H]3C[C@H](OC(=O)[C@@H](O)Cc4ccccc4)C(C)=C([C@@H](OC(C)=O)[C@H](OC(C)=O)[C@]2(C)[C@@H](OC(C)=O)C[C@@H]1O)[C@@H]3C | –
– | 47 | C=C1[C@H]2C[C@@H]3C[C@H](O)C(C)=C([C@@H](OC(C)=O)[C@H](OC(C)=O)[C@]2(C)[C@@H](OC(C)=O)C[C@@H]1O)[C@@H]3C | –
